The source of these data is article PMC8336721 (ACS chemical neuroscience, 2020).

The test system of data set [1] is mice. In words: Rotarod test. The data set is classed as in vivo.
Data set [2] has as its target T1, KOR (Homo sapiens, UniProt P41145). Nature of the data set: GloSensor cAMP assay. The format is cell-based. To be noted: for more potent than U50,488H, inhibition of cAMP accumulation: EC50 ratio vs U50,488H. (Cyclic AMP is a second messenger, typically raised through Gs and lowered through Gi signalling.)
For data set [3], the system named is mice. Nature of the data set: Conditioned place aversion.
Data set [4] has as its target DOR (Mus musculus, UniProt P32300). In words: [35S]GTPγS binding to membranes of CHO cells stably expressing the DOR. The data set is classed as biochemical. The note with it: for agonist type at the DOR: [35S]GTPγS binding, relatively low potency.
Data set [5] deals with mice. Nature of the data set: Novelty-induced locomotor activity. The data set is classed as in vivo. The note with it: 1, 3, 5 mg/kg s.c., 0–30 min post-injection.
Data set [6] deals with MOR (Rattus norvegicus, UniProt P33535). Nature of the data set: [35S]GTPγS binding to membranes of CHO cells stably expressing the MOR. The data set is classed as biochemical. To be noted: for Maximal Effect, MOR: % of maximal [35S]GTPγS binding of reference full agonist DAMGO; for agonist type at the MOR: [35S]GTPγS binding.
Sequence of MOR (P33535 whole entry): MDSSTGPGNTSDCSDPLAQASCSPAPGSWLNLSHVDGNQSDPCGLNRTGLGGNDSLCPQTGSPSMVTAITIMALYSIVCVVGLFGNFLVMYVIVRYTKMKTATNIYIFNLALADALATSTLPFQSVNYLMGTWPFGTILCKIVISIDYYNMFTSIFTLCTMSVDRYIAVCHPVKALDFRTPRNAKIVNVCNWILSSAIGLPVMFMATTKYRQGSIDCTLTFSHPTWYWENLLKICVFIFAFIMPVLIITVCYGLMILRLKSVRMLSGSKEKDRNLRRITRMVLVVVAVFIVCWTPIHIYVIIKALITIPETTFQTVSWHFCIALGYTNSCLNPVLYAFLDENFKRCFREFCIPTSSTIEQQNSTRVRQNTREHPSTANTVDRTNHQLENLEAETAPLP
Data set [7] has as its target T1, KOR. In words: Tango assay. The data set is classed as cell-based.
Data set [8] addresses T1, KOR. In words: [35S]GTPγS binding to membranes of CHO cells stably expressing the KOR. The data set is classed as biochemical. To be noted: for Maximal Effect, KOR: % of maximal [35S]GTPγS binding of reference full agonist (−)U50,488H. (Binding of GTPγS marks nucleotide exchange on a G protein.)
Data set [9] has as its target NOR (Homo sapiens, UniProt P41146). In words: [35S]GTPγS binding to membranes of CHO cells stably expressing the NOR. The format is biochemical. To be noted: for agonist type at the NOR: [35S]GTPγS binding, relatively low potency.
Data set [10] has as its system mice. In words: Formalin test. The data set is classed as in vivo. The note with it: s.c. 5 min before formalin, licking time phase II.
Data set [11] has as its system mice. In words: Compound 48/80 scratching test. The data set is classed as in vivo.
The subject of data set [12] is mice. The note with it: late phase of the formalin test; cited from earlier work.
In data set [13] the test system is P-glycoprotein. To be noted: cited from earlier work.
Data set [14] deals with mice. To be noted: nalfurafine up to 20 μg/kg, U50,488 5 mg/kg; cited from earlier work.
In data set [15] the test system is mice. To be noted: cited from earlier work.
In data set [16] the test system is mice. To be noted: cited from earlier work. The source holds these as a separate data set.
Data set [17] concerns human KOR. In words: G protein bias from RAi of GloSensor cAMP and Tango assays. The format is cell-based. To be noted: RAi−G divided by RAi−b, U50,488H as balanced agonist.
Data set [18] has as its system mouse. To be noted: mouse tail flick test; cited from earlier work. Background: In hot-plate and tail-flick tests a longer latency is read as antinociception.

Where “and” joins values, the source holds several entries; their conditions need not be identical. Equal entries are not always repeated. Where two headings read alike, the source gives them in different places.

T1 sequence (P41145 whole entry): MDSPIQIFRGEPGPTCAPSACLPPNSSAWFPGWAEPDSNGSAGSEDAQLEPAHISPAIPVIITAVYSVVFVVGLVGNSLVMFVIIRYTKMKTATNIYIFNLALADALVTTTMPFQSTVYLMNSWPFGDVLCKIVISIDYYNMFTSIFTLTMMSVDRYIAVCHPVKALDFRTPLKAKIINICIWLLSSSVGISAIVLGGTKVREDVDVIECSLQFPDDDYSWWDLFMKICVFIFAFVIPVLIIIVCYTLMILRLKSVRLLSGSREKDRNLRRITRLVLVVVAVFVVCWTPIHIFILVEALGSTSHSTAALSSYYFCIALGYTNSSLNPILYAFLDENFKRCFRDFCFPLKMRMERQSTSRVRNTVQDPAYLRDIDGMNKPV
Sequence of NOR (P41146 whole entry): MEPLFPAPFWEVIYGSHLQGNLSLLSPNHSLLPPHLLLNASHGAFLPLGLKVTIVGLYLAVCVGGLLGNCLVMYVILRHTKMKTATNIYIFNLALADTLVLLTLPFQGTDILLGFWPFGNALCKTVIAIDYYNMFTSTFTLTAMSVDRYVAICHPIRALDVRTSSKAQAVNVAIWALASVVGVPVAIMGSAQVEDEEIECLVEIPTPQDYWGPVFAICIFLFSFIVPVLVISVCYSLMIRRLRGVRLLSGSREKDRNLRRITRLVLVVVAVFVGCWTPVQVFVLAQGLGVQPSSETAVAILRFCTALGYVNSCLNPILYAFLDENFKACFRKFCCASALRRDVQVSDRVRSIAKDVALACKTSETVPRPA
Sequence of DOR (P32300 whole entry): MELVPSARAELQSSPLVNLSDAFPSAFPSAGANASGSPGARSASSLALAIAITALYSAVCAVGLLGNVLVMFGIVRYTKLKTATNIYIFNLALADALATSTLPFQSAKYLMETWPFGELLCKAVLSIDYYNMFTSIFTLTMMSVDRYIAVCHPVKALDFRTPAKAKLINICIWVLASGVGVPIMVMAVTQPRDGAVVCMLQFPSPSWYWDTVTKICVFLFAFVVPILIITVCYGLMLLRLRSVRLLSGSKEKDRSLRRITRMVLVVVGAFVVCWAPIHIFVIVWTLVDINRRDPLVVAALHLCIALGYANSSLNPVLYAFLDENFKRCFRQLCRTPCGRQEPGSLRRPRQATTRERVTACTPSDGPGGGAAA

As usually defined, the EC50 is the concentration that produces a half-maximal response. `CN(C(=O)/C=C/c1ccoc1)[C@@H]1CC[C@@]2(O)[C@H]3Cc4cccc5c4[C@@]2(CCN3CC2CC2)[C@H]1O5` [42B]: the “rotarod performance at 1 mg/kg” value in data set [1] (1 mg/kg, at 10 min) is reported as “significant effect”. Further, in [1] (1, 3, 5 mg/kg s.c., tested 10, 20, 30, 40 min), the rotarod performance entry is given as “dose-dependently caused performance impairment”. The “time of peak effect in rotarod test” value in data set [1] (among time points tested 10–40 min) came out at 10 min. Further, in [1] (mouse, in vivo), the “time of return to control level in rotarod test” value was 40 min. In addition, the “more potent than U50,488H, inhibition of cAMP accumulation” value in [2] is on record as ~ 2 fold. Also, the “GloSensor cAMP assay Emax” value in data set [2] (maximal degree of inhibition, mean ± SEM n=3) is 74.40±1.68%. Besides, the concentration giving a half-maximal response (EC50) was 0.82 ± 0.18 nM in data set [2] (read-out: GloSensor cAMP assay EC50, inhibition of cAMP, mean ± SEM n=3); 3.22 ± 0.42 nM in data set [7] (read-out: Tango assay EC50, β-arrestin2 recruitment, mean ± SEM n=3); 25.6 ± 1.5 nM in data set [8] (read-out: EC50, KOR, [35S]GTPγS binding, CHO membranes, 100 mM NaCl, mean ± SEM n=3–4). In addition, in data set [3] (1, 3, 5 mg/kg s.c., 6 days conditioning), the CPA result is listed as “did not cause CPA”. Besides, in data set [3] (naloxone 1 mg/kg s.c. 25 min before 42B 3 mg/kg), the “effect of MOR blockade by naloxone on lack of CPA” value is “did not affect its lack of CPA”. In addition, the “Maximal Effect, DOR” value in [4] (% of maximal [35S]GTPγS binding of reference full agonist DPDPE) stood at 134.7 ± 3.4%. In [4], the “agonist type at the DOR” value is listed as “full agonism”. Also, the novelty-induced hyperlocomotion entry in data set [5] is “significant and dose-dependent reduction”. Moreover, the “Maximal Effect, MOR” value in data set [6] was 49% and 48.87 ± 2.45%. For the same compound, the “agonist type at the MOR” value in data set [6] is listed as “partial agonists”. Also, the “lower potency for β-arrestin recruitment than U50,488H” value in data set [7] (EC50 ratio vs U50,488H) is reported as ~ 2 fold. Also, the “lower potency for β-arrestin recruitment than nalfurafine” value in data set [7] (EC50 ratio vs nalfurafine) is given as ~ 4 fold. In addition, the “Tango assay Emax” value in data set [7] (β-arrestin2 recruitment, mean ± SEM n=3, % printed in b16 only) came to 116.8±1.0 %. Moreover, the “Maximal Effect, KOR” value in data set [8] was 91% and 91.34 ± 1.15%. Also, the “agonist type at the KOR” value in [8] ([35S]GTPγS binding) is “full agonists”. Moreover, the “agonist type at the NOR” value in data set [9] is “full agonism”. Further, the “A50, formalin test” value in data set [10] worked out at 2.08 mg/kg. Further, the “effect of norBNI pretreatment on anti-scratch activity” value in data set [11] (norBNI 20 mg/kg i.p. 20 h before 42B 3 mg/kg) is on record as “eliminated the anti-scratch activity”. In addition, the “A50, compound 48/80-induced scratching” value in data set [11] (s.c. 20 min before compound 48/80, bouts counted 30 min, mice) stood at 2.82 mg/kg.
Regarding `CN(C(=O)/C=C/c1ccoc1)[C@@H]1CC[C@@]2(O)[C@H]3Cc4ccc(O)c5c4[C@@]2(CCN3CC2CC2)[C@H]1O5` [Nalfurafine], the “A50, formalin test” value in data set [12] was 5.8 µg/kg. The P-glycoprotein substrate entry in [13] is “P-glycoprotein substrate”. In addition, the CPA result in data set [14] is on record as “did not produce CPA”. Further, the “more potent than U50,488H, inhibition of cAMP accumulation” value in [2] was ~ 9 fold. The Emax in [2] (HEK-293T, read-out: GloSensor cAMP assay Emax) was found to be 69.8 ± 1.53%; in data set [4] (read-out: Maximal Effect, DOR), 129 ± 3.2%; in data set [7] (HEK293, read-out: Tango assay Emax) it was 108 ± 2.6%; in [9] (read-out: Maximal Effect, NOR) it was 120 ± 2.2%. For the same compound, the “more potent than 42B in inhibition of forskolin-stimulated adenylyl cyclase (Glosensor assay)” value in data set [2] (nalfurafine vs 42B) is ~ 5 X. Further, the “A50, compound 48/80-induced scratching” value in data set [15] was 8.0 µg/kg. Moreover, in data set [4], the “agonist type at the DOR” value was “full agonism”. The EC50 was 3.11 ± 0.63 nM in data set [6] and 280 ± 17.7 nM in [9]. In addition, the “Maximal Effect, MOR” value in data set [6] worked out at 73.88 ± 2.93%. Further, the “agonist type at the MOR” value in data set [6] is on record as “partial agonists”. Also, the “Maximal Effect, KOR” value in data set [8] is given as 90.90 ± 3.25%. The “agonist type at the KOR” value in data set [8] ([35S]GTPγS binding) is on record as “full agonists”. Further, the “potency at the KOR higher than that of 42B” value in data set [8] ([35S]GTPγS binding EC50 ratio, nalfurafine vs 42B) is given as ~ 250 fold. In data set [16] (20 μg/kg, at 30 min and 40 min following injection), the rotarod performance result is recorded as “small, yet significant, effects”. Further, the “time of peak effect in rotarod test” value in data set [16] (slight lowering effect) is given as 30 min. The “agonist type at the NOR” value in [9] is on record as “full agonism”. For the same compound, the “G Biased factor (95% CI)” value in data set [17] was 4.49 (1.79–11.1); in [17] (listed as nalfurafine), 4.49. Besides, in [11] (A50 ratio nalfurafine vs 42B), the “more potent than 42B in the anti-scratch test” value is reported as “about 340 x”.
In the case of `C=CCN1CC[C@]23c4c5ccc(O)c4O[C@H]2C(=O)CC[C@@]3(O)[C@H]1C5` [naloxone], the “CPA or CPP in the naloxone experiment” value in data set [3] (naloxone 1 mg/kg alone, U50,488 5 mg/kg as positive control) was “Neither naloxone (1 mg/kg) alone nor a combination of naloxone (1 mg/kg) and 42B (3 mg/kg) caused CPA or CPP”. Further, the “more potent in antagonizing morphine- than U50,488- or spiradoline-induced antinociception” value in data set [18] is given as 20–36 times.
Take `Oc1ccc2c3c1O[C@H]1c4[nH]c5c(c4C[C@@]4(O)[C@@H](C2)N(CC2CC2)CC[C@]314)C[C@@]1(O)[C@H]2Cc3ccc(O)c4c3[C@@]1(CCN2CC1CC1)[C@H]5O4` [norBNI, nor-binaltorphimine]: the “effect on compound 48/80-induced scratching, alone” value in data set [11] (norBNI 20 mg/kg i.p. 20 h before saline) is “no effects”.
